Experimental data published in US20250026748A1, “N-(5-SUBSTITUTED-[(1,3,4-THIADIAZOLYL) OR (THIAZOLYL)])(SUBSTITUTED)CARBOXAMIDE COMPOUNDS AND USE THEREOF FOR INHIBITING HUMAN POLYMERASE THETA” (Repare Therapeutics Inc., priority 2021, published 2025).

Biological target: PolQ ATPase enzyme (1-894) (Homo sapiens (Human), UniProt O75417)
Assay: Polθ ATPase enzymatic assay (0.5 nM enzyme concentration), ADP-Glo
Assay type: biochemical
Conditions: average IC50; 0.5 nM PolQ ATPase enzyme (1-894)
Method in brief: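 Enzyme (0.5 nM) pre-incubated 15 min at rt with 10-point inhibitor series in 50 mM Tris pH 7.5, 10% glycerol, 5 mM DTT, 10 mM MgCl2, 0.1 mg/ml BSA; reaction started with 20 nM fork DNA and 100 μM ATP, run 180 min at rt. ADP-Glo luminescence; IC50 from 4-parameter variable-slope fit.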

Sequence of PolQ ATPase enzyme (1-894) (O75417 1-894): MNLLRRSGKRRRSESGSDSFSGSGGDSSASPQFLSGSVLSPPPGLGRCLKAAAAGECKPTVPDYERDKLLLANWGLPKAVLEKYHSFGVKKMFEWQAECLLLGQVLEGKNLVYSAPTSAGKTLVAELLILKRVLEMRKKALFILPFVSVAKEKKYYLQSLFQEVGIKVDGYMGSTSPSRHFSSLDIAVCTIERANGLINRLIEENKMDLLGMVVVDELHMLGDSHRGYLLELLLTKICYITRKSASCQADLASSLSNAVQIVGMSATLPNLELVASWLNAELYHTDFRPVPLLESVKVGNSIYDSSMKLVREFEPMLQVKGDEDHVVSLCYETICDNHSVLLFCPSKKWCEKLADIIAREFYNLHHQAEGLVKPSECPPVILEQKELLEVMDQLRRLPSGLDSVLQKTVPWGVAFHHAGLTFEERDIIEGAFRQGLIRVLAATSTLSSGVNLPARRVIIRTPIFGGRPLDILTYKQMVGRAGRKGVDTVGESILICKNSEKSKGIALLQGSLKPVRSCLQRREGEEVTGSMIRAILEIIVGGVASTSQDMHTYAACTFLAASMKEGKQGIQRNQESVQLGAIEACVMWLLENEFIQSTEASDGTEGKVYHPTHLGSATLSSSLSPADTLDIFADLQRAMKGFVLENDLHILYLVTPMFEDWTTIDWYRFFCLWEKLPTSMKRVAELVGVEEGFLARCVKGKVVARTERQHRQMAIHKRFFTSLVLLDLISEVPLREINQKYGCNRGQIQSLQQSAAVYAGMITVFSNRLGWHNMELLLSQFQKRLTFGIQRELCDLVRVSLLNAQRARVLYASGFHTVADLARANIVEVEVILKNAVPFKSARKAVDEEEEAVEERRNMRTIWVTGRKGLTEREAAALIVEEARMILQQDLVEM

Structure (SMILES)	IC50 [nM]
COc1cnc(C(F)F)cc1-c1cc(-n2ccc(Cl)cc2=O)ncc1C(=O)Nc1nnc(C#CC2CC2)s1 [Compound 459]	< 0.25
COc1ccc(C(F)(F)F)cc1-c1cc(N2CCCC2=O)ncc1C(=O)Nc1nnc(C#CC2CC2)s1 [Compound 290]	7.3
COc1cnc(C(F)F)cc1-c1cc(C#CCN(C)C)ccc1C(=O)Nc1nnc(C#CC2CC2)s1 [Compound 236]	0.56
Cc1nnc(Cn2cc(-c3cc(C(F)(F)F)ccc3Cl)c(C(=O)Nc3ncc(C#CC4CC4)s3)cc2=O)o1 [Compound 115, 5-(2-chloro-5-(trifluoromethyl)phenyl)-N-(5-(cyclopropylethynyl)thiazol-2-yl)-1-((5-methyl-1,3,4-oxadiazol-2-yl)methyl)-2-oxo-1,2-dihydropyridine-4-carboxamide]	< 0.25
COc1cnc(C(F)F)cc1-c1cc(N2CCN3CCCC3C2=O)ncc1C(=O)Nc1nnc(C#CC2CC2)s1 (stereo not drawn) [Compound 415]	0.25
COc1cnc(C(F)F)cc1-c1cc(OC[C@@H]2CCOC2)ncc1C(=O)Nc1nnc(C#CC2CC2)s1 [Compound 148]	0.93
COc1cc(N2CCOCC2)c(C(F)(F)F)cc1-c1cnccc1C(=O)Nc1nnc(C#CC2CC2)s1 [Compound 325]	< 0.25
COc1cnc(C(F)F)cc1-c1cc(N2C(=O)[C@H]3CC[C@@H]2C3)ncc1C(=O)Nc1nnc(C#CC2CC2)s1 [Compound 365]	100
COc1cnc(C(F)F)cc1-c1cc(C#Cc2cnn(C)c2)ncc1C(=O)Nc1nnc(C#CC2CC2)s1 [Compound 185]	< 0.25
COc1cnc(C(F)F)cc1-c1cc(-c2ccn(C)n2)ncc1C(=O)Nc1ncc(C#CC2CC2)s1 [Compound 117, N-(5-(cyclopropylethynyl)thiazol-2-yl)-2′-(difluoromethyl)-5′-methoxy-6-(1-methyl-1H-pyrazol-3-yl)-[4,4′-bipyridine]-3-carboxamide]	2
COc1cnc(C(F)F)cc1-c1cc(N2CCOCC2=O)ncc1C(=O)Nc1nnc(C#Cc2ccc(Cl)cc2)s1 [Compound 176]	23
COc1cnc(C(F)F)cc1-c1cn(C)c(=O)cc1C(=O)Nc1nnc(C2C[C@H]2c2ccc(C#N)cc2)s1 (stereo partly drawn) [Compound 322]	1.9
COc1cnc(C(F)F)cc1-c1cc(Oc2nccs2)ccc1C(=O)Nc1nnc(C#CC2CC2)s1 [Compound 301]	< 0.25
COc1ccc(C(F)(F)F)cc1-c1cn2ncnc2cc1C(=O)Nc1nnc(C#CC2CC2)s1 [Compound 345]	3.7
COc1cnc(C(F)F)cc1-c1cc(CO)ncc1C(=O)Nc1nnc(C#CC2CC2)s1 [Compound 272]	1.2
COc1cnc(C(F)F)cc1-c1cc(-c2cnn(C)c2)ncc1C(=O)Nc1nnc(C#CC2CC2)s1 [Compound 252]	< 0.25
COc1cnc(C(F)F)cc1-c1cc(C#CC2CCCOC2)ncc1C(=O)Nc1nnc(C#Cc2cc(C)[nH]n2)s1 (stereo not drawn) [Compound 146]	< 0.25
[2H]C([2H])([2H])N(C(C)=O)c1ccc(C(=O)Nc2nnc(C#CC3CC34CC4)s2)c(-c2cc(C(F)F)ncc2OC)c1 (stereo not drawn) [Compound 237]	< 0.25
COc1cnc(C(F)F)cc1-c1cc(Cl)ncc1C(=O)Nc1ncc(C#CC2CC2)s1 [Compound 289]	0.88
[2H]C([2H])([2H])Oc1cnc(C(F)F)cc1-c1cc(-c2nnc(C)o2)ccc1C(=O)Nc1nnc(C#CC2CC2)s1 [Compound 406]	2.8
COc1cnc(C(F)F)cc1-c1cc(C#CC2CCOC2)ncc1C(=O)Nc1ncc(C#CC2CC2)s1 (stereo not drawn) [Compound 223]	0.29
COc1cnc(C(F)F)cc1-c1cn(C)c(=O)cc1C(=O)Nc1nnc(C#CC2CC23CC3)s1 (stereo not drawn) [Compound 49]	0.75
COc1cnc(C(F)F)cc1-c1cc(-c2cc[nH]n2)ncc1C(=O)Nc1nnc(C#CC2CC2)s1 [Compound 145, N-(5-(cyclopropylethynyl)-1,3,4-thiadiazol-2-yl)-2′-(difluoromethyl)-5′-methoxy-6-(1H-pyrazol-3-yl)-[4,4′-bipyridine]-3-carboxamide]	< 0.25
COc1cnc(C(F)F)cc1-c1cc(NCCOCC(=O)O)ncc1C(=O)Nc1nnc(C#CC2CC2)s1 [Compound 159]	0.79
